Laboratory results published in patent US12172990B2 (Constellation Pharmaceuticals, Inc., priority 2018, dated 2024).

Assays:
full length human TREX1 = full length human TREX1 (Homo sapiens (Human), UniProt Q9NSU2); experiment: TREX1 Biochemical Assay (fluorescence assay measuring degradation of dsDNA substrate); details: 150 pM TREX1, 60 nM dsDNA substrate, 25 minutes at room temperature
Procedure, shortened: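 His-Tev-tagged full-length human TREX1 expressed in E. coli, 150 pM final, with 60 nM TEX615/quencher-labelled 9-mer dsDNA in Tris pH 7.4, NaCl, DTT, BSA, Tween-20, MgCl2 and 1.0% DMSO; 25 min at room temperature, EDTA-quenched. Fluorescence 615 nm (excitation 570 nm); 10-point IC50 by four-parameter fit against pre-quenched and no-inhibitor controls.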

[1] = target: human TREX2 (residues M44-A279) (Homo sapiens (Human), UniProt Q9BQ50); experiment: TREX2 Biochemical Assay (fluorescence assay measuring degradation of dsDNA substrate); details: 2.5 nM TREX2, 60 nM dsDNA substrate, 25 minutes at room temperature
Procedure, shortened: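 Final conditions: 2.5 nM His-Tev-tagged TREX2 (E. coli-expressed), 60 nM fluorophore/quencher-labelled dsDNA, 50 mM Tris pH 7.4, 150 mM NaCl, 100 mM MgCl2, 1% DMSO; 10-point compound dose-response. Incubated 25 min at room temperature, then EDTA-quenched; fluorescence read at ex 570/em 615 nm. IC50 from four-parameter fit against pre-quenched and no-inhibitor controls.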

Sequence of human TREX2 (residues M44-A279) (Q9BQ50 whole entry, the tested form may be a part): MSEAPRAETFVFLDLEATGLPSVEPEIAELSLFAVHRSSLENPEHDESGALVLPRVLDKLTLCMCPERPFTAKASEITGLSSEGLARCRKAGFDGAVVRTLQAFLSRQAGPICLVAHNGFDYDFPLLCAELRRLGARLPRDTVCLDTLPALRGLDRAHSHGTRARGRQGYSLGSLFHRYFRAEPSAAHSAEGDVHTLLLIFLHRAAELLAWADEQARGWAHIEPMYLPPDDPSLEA
Sequence of full length human TREX1 (Q9NSU2 whole entry): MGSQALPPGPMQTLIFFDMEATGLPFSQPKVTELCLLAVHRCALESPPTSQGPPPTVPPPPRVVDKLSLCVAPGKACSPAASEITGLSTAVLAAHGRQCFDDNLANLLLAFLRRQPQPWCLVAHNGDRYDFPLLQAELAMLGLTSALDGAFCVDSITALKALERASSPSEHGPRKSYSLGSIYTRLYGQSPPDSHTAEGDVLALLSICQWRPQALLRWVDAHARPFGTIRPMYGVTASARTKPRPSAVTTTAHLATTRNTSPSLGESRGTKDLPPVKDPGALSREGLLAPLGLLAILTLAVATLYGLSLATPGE

Question: Which results are given for `Cn1c(C2CCCN(C(=O)Cc3ccccc3)C2)nc(C(=O)Nc2cnoc2)c(O)c1=O` (stereo not shown) [Example 61, 5-hydroxy-N-(isoxazol-4-yl)-1-methyl-6-oxo-2-(1-(2-phenylacetyl)piperidin-3-yl)-1,6-dihydropyrimidine-4-carboxamide]?
Answer: IC50 (full length human TREX1): 0.1 to 1 µM; IC50 [1]: 1 to 10 µM

Question: `Cn1c(-c2ccc(Br)cc2)nc(C(=O)Nc2cnoc2)c(O)c1=O` [Example 11, 2-(4-bromophenyl)-5-hydroxy-N-(isoxazol-4-yl)-1-methyl-6-oxo-1,6-dihydropyrimidine-4-carboxamide] was tested. Which IC50 (full length human TREX1) did it give?
Answer: 0.1 to 1 µM

Question: What about the IC50 [1] of the same compound?
Answer: 10 to 100 µM

Question: Which results are given for `Cn1c(-c2cccnc2)nc(C(=O)Nc2cnoc2)c(O)c1=O` [Example 29, 5-hydroxy-N-(isoxazol-4-yl)-1-methyl-6-oxo-2-(pyridin-3-yl)-1,6-dihydropyrimidine-4-carboxamide]?
Answer: IC50 (full length human TREX1): 1 to 10 µM; IC50 [1]: 10 to 100 µM

Question: What does the source list for `Cn1c(C2CCCN(C(=O)c3ccc(Cl)cc3)C2)nc(C(=O)Nc2cnoc2)c(O)c1=O` (stereo not shown) [Example 59, 2-(1-(4-chlorobenzoyl)piperidin-3-yl)-5-hydroxy-N-(isoxazol-4-yl)-1-methyl-6-oxo-1,6-dihydropyrimidine-4-carboxamide]?
Answer: IC50 (full length human TREX1): 0.1 to 1 µM; IC50 [1]: 1 to 10 µM

Question: With `Cn1c([C@@H]2CCCN(C(=O)c3ccc(Cl)c(Cl)c3)C2)nc(C(=O)Nc2cnoc2)c(O)c1=O` [Example 131, (R)-2-(1-(3,4-dichlorobenzoyl)piperidin-3-yl)-5-hydroxy-N-(isoxazol-4-yl)-1-methyl-6-oxo-1,6-dihydropyrimidine-4-carboxamide] as the compound, how does the IC50 (full length human TREX1) read?
Answer: < 0.1 µM

Question: What about the IC50 [1] of the same compound?
Answer: < 1 µM

Question: With `Cc1cc(-c2nc(C(=O)Nc3cnoc3)c(O)c(=O)n2C)cc(N2CCOCC2)c1` [Example 31, 5-hydroxy-N-(isoxazol-4-yl)-1-methyl-2-(3-methyl-5-morpholinophenyl)-6-oxo-1,6-dihydropyrimidine-4-carboxamide] as the compound, how does the IC50 (full length human TREX1) read?
Answer: 0.1 to 1 µM

Question: And the IC50 [1]?
Answer: 1 to 10 µM

Question: How did the IC50 (full length human TREX1) turn out when `CC(=O)N1CCN(c2nc(C(=O)Nc3cnoc3)c(O)c(=O)n2C)CC1` [Example 116, 2-(4-acetylpiperazin-1-yl)-5-hydroxy-N-(isoxazol-4-yl)-1-methyl-6-oxo-1,6-dihydropyrimidine-4-carboxamide] was run?
Answer: 0.1 to 1 µM

Question: And the IC50 [1]?
Answer: 10 to 100 µM

Question: For `Cc1cc(C(=O)NC2CCOCC2)cc(-c2nc(C(=O)Nc3cnoc3)c(O)c(=O)n2C)c1` [Example 37, 5-hydroxy-N-(isoxazol-4-yl)-1-methyl-2-(3-methyl-5-((tetrahydro-2H-pyran-4-yl)carbamoyl)phenyl)-6-oxo-1,6-dihydropyrimidine-4-carboxamide], which IC50 (full length human TREX1) is on record?
Answer: 0.1 to 1 µM

Question: And the IC50 [1]?
Answer: 10 to 100 µM

Question: With `Cn1c(C2CCCN(C(=O)c3ccccc3Cl)C2)nc(C(=O)Nc2cnoc2)c(O)c1=O` (stereo not shown) [Example 46, 2-(1-(2-chlorobenzoyl)piperidin-3-yl)-5-hydroxy-N-(isoxazol-4-yl)-1-methyl-6-oxo-1,6-dihydropyrimidine-4-carboxamide] as the compound, how does the IC50 (full length human TREX1) read?
Answer: 0.1 to 1 µM

Question: What about the IC50 [1] of the same compound?
Answer: 10 to 100 µM

Question: `Cn1c(C2CCCN(C(=O)Nc3ccccc3)C2)nc(C(=O)Nc2cnoc2)c(O)c1=O` (stereo not shown) [Example 65, 5-hydroxy-N-(isoxazol-4-yl)-1-methyl-6-oxo-2-(1-(phenylcarbamoyl)piperidin-3-yl)-1,6-dihydropyrimidine-4-carboxamide] was tested. Which IC50 (full length human TREX1) did it give?
Answer: 0.1 to 1 µM

Question: And the IC50 [1]?
Answer: 1 to 10 µM

Question: How did the IC50 (full length human TREX1) turn out when `Cn1c(C2CCCN(C(=O)c3cn[nH]c3)C2)nc(C(=O)Nc2cnoc2)c(O)c1=O` (stereo not shown) [Example 94, 2-(1-(1H-pyrazole-4-carbonyl)piperidin-3-yl)-5-hydroxy-N-(isoxazol-4-yl)-1-methyl-6-oxo-1,6-dihydropyrimidine-4-carboxamide] was run?
Answer: 0.1 to 1 µM

Question: What about the IC50 [1] of the same compound?
Answer: 10 to 100 µM

Question: With `Cn1c(-c2ccccn2)nc(C(=O)Nc2cnoc2)c(O)c1=O` [Example 27, 5-hydroxy-N-(isoxazol-4-yl)-1-methyl-6-oxo-2-(pyridin-2-yl)-1,6-dihydropyrimidine-4-carboxamide] as the compound, how does the IC50 (full length human TREX1) read?
Answer: > 10 µM

Question: What about the IC50 [1] of the same compound?
Answer: > 100 µM

Question: `CC(=O)N1CCN(c2nc(C(=O)Nc3cnoc3)c(O)c(=O)n2C)[C@H](c2ccccc2Cl)C1` [Example 128, (R)-2-(4-acetyl-2-(2-chlorophenyl)piperazin-1-yl)-5-hydroxy-N-(isoxazol-4-yl)-1-methyl-6-oxo-1,6-dihydropyrimidine-4-carboxamide] was tested. Which IC50 (full length human TREX1) did it give?
Answer: < 0.1 µM

Question: What about the IC50 [1] of the same compound?
Answer: < 1 µM

Question: Which results are given for `Cc1cc(C(=O)O)cc(-c2nc(C(=O)Nc3cnoc3)c(O)c(=O)n2C)c1` [Example 51, 3-(5-hydroxy-4-(isoxazol-4-ylcarbamoyl)-1-methyl-6-oxo-1,6-dihydropyrimidin-2-yl)-5-methylbenzoic acid]?
Answer: IC50 (full length human TREX1): 0.1 to 1 µM; IC50 [1]: 1 to 10 µM

Question: With `Cn1c(C2CCCN(C(=O)c3cccnc3)C2)nc(C(=O)Nc2cnoc2)c(O)c1=O` (stereo not shown) [Example 93, 5-hydroxy-N-(isoxazol-4-yl)-1-methyl-2-(1-nicotinoylpiperidin-3-yl)-6-oxo-1,6-dihydropyrimidine-4-carboxamide] as the compound, how does the IC50 (full length human TREX1) read?
Answer: 0.1 to 1 µM

Question: And the IC50 [1]?
Answer: 1 to 10 µM

Question: With `Cn1c(N2CCC[C@@H]2c2ccccc2)nc(C(=O)Nc2cnoc2)c(O)c1=O` [Example 113, (R)-5-hydroxy-N-(isoxazol-4-yl)-1-methyl-6-oxo-2-(2-phenylpyrrolidin-1-yl)-1,6-dihydropyrimidine-4-carboxamide] as the compound, how does the IC50 (full length human TREX1) read?
Answer: < 0.1 µM

Question: What about the IC50 [1] of the same compound?
Answer: 1 to 10 µM

Question: `Cn1c([C@H]2CCCN(C(=O)c3ccc(F)c(Cl)c3)C2)nc(C(=O)Nc2cnoc2)c(O)c1=O` [Example 88, (S)-2-(1-(3-chloro-4-fluorobenzoyl)piperidin-3-yl)-5-hydroxy-N-(isoxazol-4-yl)-1-methyl-6-oxo-1,6-dihydropyrimidine-4-carboxamide] was tested. Which IC50 (full length human TREX1) did it give?
Answer: < 0.1 µM

Question: And the IC50 [1]?
Answer: 1 to 10 µM

Question: Which IC50 (full length human TREX1) does the source give for `Cn1c(C2CCCN(C(=O)c3ccncc3)C2)nc(C(=O)Nc2cnoc2)c(O)c1=O` (stereo not shown) [Example 63, 5-hydroxy-2-(1-isonicotinoylpiperidin-3-yl)-N-(isoxazol-4-yl)-1-methyl-6-oxo-1,6-dihydropyrimidine-4-carboxamide] here?
Answer: 0.1 to 1 µM

Question: What about the IC50 [1] of the same compound?
Answer: 1 to 10 µM

Question: Which IC50 (full length human TREX1) does the source give for `COc1cccc(C(=O)N2CCCC(c3nc(C(=O)Nc4cnoc4)c(O)c(=O)n3C)C2)c1` (stereo not shown) [Example 48, 5-hydroxy-N-(isoxazol-4-yl)-2-(1-(3-methoxybenzoyl)piperidin-3-yl)-1-methyl-6-oxo-1,6-dihydropyrimidine-4-carboxamide] here?
Answer: 0.1 to 1 µM

Question: And the IC50 [1]?
Answer: 1 to 10 µM

Question: `Cn1c(N2CC(Oc3ccccc3)C2)nc(C(=O)Nc2cnoc2)c(O)c1=O` [Example 122, 5-hydroxy-N-(isoxazol-4-yl)-1-methyl-6-oxo-2-(3-phenoxyazetidin-1-yl)-1,6-dihydropyrimidine-4-carboxamide] was tested. Which IC50 (full length human TREX1) did it give?
Answer: 0.1 to 1 µM

Question: What about the IC50 [1] of the same compound?
Answer: 10 to 100 µM

Question: With `Cn1c([C@H]2CCCN(S(=O)(=O)c3ccc(Cl)c(Cl)c3)C2)nc(C(=O)Nc2cnoc2)c(O)c1=O` [Example 92, (S)-2-(1-((3,4-dichlorophenyl)sulfonyl)piperidin-3-yl)-5-hydroxy-N-(isoxazol-4-yl)-1-methyl-6-oxo-1,6-dihydropyrimidine-4-carboxamide] as the compound, how does the IC50 (full length human TREX1) read?
Answer: 0.1 to 1 µM

Question: What about the IC50 [1] of the same compound?
Answer: 10 to 100 µM

Question: `Cn1c(-c2cccc(Br)c2OCCO)nc(C(=O)Nc2cnoc2)c(O)c1=O` [Example 15, 2-(3-bromo-2-(2-hydroxyethoxy)phenyl)-5-hydroxy-N-(isoxazol-4-yl)-1-methyl-6-oxo-1,6-dihydropyrimidine-4-carboxamide] was tested. Which IC50 (full length human TREX1) did it give?
Answer: < 0.1 µM

Question: And the IC50 [1]?
Answer: < 1 µM

Question: `Cn1c(Cc2ccccc2)nc(C(=O)Nc2cnoc2)c(O)c1=O` [Example 6, 2-benzyl-5-hydroxy-N-(isoxazol-4-yl)-1-methyl-6-oxo-1,6-dihydropyrimidine-4-carboxamide] was tested. Which IC50 (full length human TREX1) did it give?
Answer: 0.1 to 1 µM

Question: And the IC50 [1]?
Answer: 10 to 100 µM

Question: What does the source list for `Cn1c([C@H]2CCC[C@@H](NC(=O)c3ccc(Cl)c(Cl)c3)C2)nc(C(=O)Nc2cnoc2)c(O)c1=O` [Example 82, 2-((1S,3R)-3-(3,4-dichlorobenzamido)cyclohexyl)-5-hydroxy-N-(isoxazol-4-yl)-1-methyl-6-oxo-1,6-dihydropyrimidine-4-carboxamide]?
Answer: IC50 (full length human TREX1): 1 to 10 µM; IC50 [1]: 10 to 100 µM

Question: What does the source list for `Cn1c(C(NC(=O)OCc2ccccc2)c2ccccc2)nc(C(=O)Nc2cnoc2)c(O)c1=O` (stereo not shown) [Example 23, benzyl ((5-hydroxy-4-(isoxazol-4-ylcarbamoyl)-1-methyl-6-oxo-1,6-dihydropyrimidin-2-yl)(phenyl)methyl)carbamate]?
Answer: IC50 (full length human TREX1): 0.1 to 1 µM; IC50 [1]: 1 to 10 µM

Question: Which results are given for `Cn1c(N2CC[C@@H](c3ccccc3)C2)nc(C(=O)Nc2cnoc2)c(O)c1=O` [Example 109, (S)-5-hydroxy-N-(isoxazol-4-yl)-1-methyl-6-oxo-2-(3-phenylpyrrolidin-1-yl)-1,6-dihydropyrimidine-4-carboxamide]?
Answer: IC50 (full length human TREX1): < 0.1 µM; IC50 [1]: 10 to 100 µM

Question: Which IC50 (full length human TREX1) does the source give for `Cn1c(C2CCCN(C(=O)c3cccc(Cl)c3)C2)nc(C(=O)Nc2cnoc2)c(O)c1=O` (stereo not shown) [Example 45, 2-(1-(3-chlorobenzoyl)piperidin-3-yl)-5-hydroxy-N-(isoxazol-4-yl)-1-methyl-6-oxo-1,6-dihydropyrimidine-4-carboxamide] here?
Answer: < 0.1 µM

Question: What about the IC50 [1] of the same compound?
Answer: 1 to 10 µM

Question: For `Cn1c(Oc2ccccc2)nc(C(=O)Nc2cnoc2)c(O)c1=O` [Example 120, 5-hydroxy-N-(isoxazol-4-yl)-1-methyl-6-oxo-2-phenoxy-1,6-dihydropyrimidine-4-carboxamide], which IC50 (full length human TREX1) is on record?
Answer: < 0.1 µM

Question: And the IC50 [1]?
Answer: 1 to 10 µM

Question: Which results are given for `COc1ccc(C(=O)N2CCCC(c3nc(C(=O)Nc4cnoc4)c(O)c(=O)n3C)C2)cc1` (stereo not shown) [Example 47, 5-hydroxy-N-(isoxazol-4-yl)-2-(1-(4-methoxybenzoyl)piperidin-3-yl)-1-methyl-6-oxo-1,6-dihydropyrimidine-4-carboxamide]?
Answer: IC50 (full length human TREX1): 0.1 to 1 µM; IC50 [1]: 1 to 10 µM
